Structures are written as SMILES.

The results in this text go back to patent US20230312491A1, “N-SUBSTITUTED 4-(5-PHENYL-1,3,4-OXADIAZOL-2-YL)ANILINE FOR THE TREATMENT AND PROPHYLAXIS OF HEPATITIS B VIRUS INFECTION” (priority 2020, published 2023).

What all share (type): cell-based
The subject of one data set is HBeAg. Nature of the data set: PHH natural infection assay, HBeAg (alphalisa). Conditions: Hepatitis B virus, Hepatocyte, 72 h, read-out: HBeAg IC50. The protocol: (§1) Detailed procedures regarding primary human hepatocyte (PHH) HBV natural infection assay are described as below. One tube of frozen PHH (10 million cells) is thawed in 37° C. water bath and then transferred to 20 mL of PHH thawing medium (Sigma, InVitroGRO HT Medium, Cat. S03319) with gently mixing. The cells were then centrifuged at […] for 5 min, the supernatant was discarded and the tube was refilled with 25 mL of PHH plating medium (Sigma, InVitroGRO CP Medium, Cat. S03317). The tube was shaken very gently to re-suspend all cells, and then 50 µl of cells were transferred to each well 384-well collagen I coated plate with appropriate liquid handling equipment, e.g. Integra VIAFLO384 or Agilent Bravo. The cells were then cultured for 24 hours in a cell incubator. For HBV infection, after PHH attachment on the culture plate, the plating medium was removed and replenished with PHH culture medium containing HBV virus. The PHH culture medium was prepared with Dulbecco’s Modified Eagle Medium (DMEM)/F12 (1: 1 in volume ratio) containing 10% fetal bovine serum (Gibco, Cat.10099141), 5 ng/mL human epidermal growth factor (Gibco, Cat.PHG0311L), 20 ng/mL dexamethasone (Sigma, Cat.D4902-100 mg), 250 ng/mL human recombinant insulin (Gibco, Cat.41400045) and 100 U/mL penicillin. HBV virus at 200 genome equivalent (GE) per cell with 4% PEG8000 (Sigma, Cat.P1458) containing culture medium were added to the PHH culture medium for infection. The cells were then cultured for 24 hours in cell incubator. Then the cell culture supernatant was removed. The HBV-infected PHH were cultured with sandwich culture method with PHH culture medium containing 1% DMSO and 0.25 mg/mL matrix gel for 72 hours. The supernatant was then refreshed with PHH culture medium containing different concentrations of testing compounds for two times with 72-hour interval. At the end of treatment, the supernatant was collected for viral markers measurements, including HBsAg, HBeAg, HBV DNA and cytotoxicity. HBsAg and HBeAg were detected using alphalisa method using their specific antibodies. For HBV DNA detection, HBV DNA Quantitative Fluorescence Diagnostic Kit (Sansure Biotech Inc.) was used following the manufacture’s protocol. Cytotoxicity was determined using Cell Counting Kit-8 (CCK8, Dojindo Molecular Technologies, Inc.).
(§2) The compounds of the present invention were tested for their capacity to inhibit HBsAg and HBeAg as described herein.

Data set [1] is described as follows: PHH natural infection assay, cytotoxicity (Cell Counting Kit-8). Conditions: HBV-infected primary human hepatocytes, CCK8. On the procedure: as §1
The subject of a further data set is HBsAg. The data set is described as follows: PHH natural infection assay, HBsAg (alphalisa). Conditions: Hepatitis B virus, Hepatocyte, 72 h, read-out: HBsAg IC50. On the procedure: as §1, §2

For `CC(C)CC(=O)Nc1ccc(-c2nnc(-c3ccccc3)o2)cc1` [Example 4, 3-methyl-N-[4-(5-phenyl-1,3,4-oxadiazol-2-yl)phenyl]butanamide], the IC50 in the data set with HBeAg turned out to be 3430 nM; with HBsAg, 2800 nM. Also, the CC50 at 144 h in data set [1] was above 100000 nM.

On to `COCCC(=O)Nc1ccc(-c2nnc(-c3ccccc3)o2)cc1` [Example 5, 3-methoxy-N-[4-(5-phenyl-1,3,4-oxadiazol-2-yl)phenyl]propanamide], for which the IC50 in the data set with HBeAg was 690 nM; with HBsAg it was 590 nM. For the same compound, in data set [1], the CC50 at 144 h was above 100000 nM.

For `CN(C)c1ccc(-c2nnc(-c3ccccc3)o2)cc1` [Example 33, N,N-dimethyl-4-(5-phenyl-1,3,4-oxadiazol-2-yl)aniline], the IC50 in the data set with HBeAg was determined as 91600 nM; with HBsAg it was 7690 nM. The half-maximal cytotoxic concentration (CC50) at 144 h in data set [1] was above 100000 nM.

Turning to `CC(C)C(=O)Nc1ccc(-c2nnc(-c3ccccc3)o2)cc1` [Example 6, 2-methyl-N-[4-(5-phenyl-1,3,4-oxadiazol-2-yl)phenyl]propanamide], the IC50 with HBeAg is 2200 nM; in the data set on HBsAg it was 1330 nM. The same compound registered a cytotoxic concentration (CC50) at 144 h in data set [1] above 100000 nM.

On to `COc1cc(-c2nnc(-c3ccccc3)o2)ccc1N` [Example 31, 2-Methoxy-4-(5-phenyl-1,3,4-oxadiazol-2-yl)aniline], for which the results for the half-inhibitory concentration (IC50) in the data set with HBeAg and in the data set with HBsAg were 4170 nM and 1490 nM, respectively. This compound also showed a 50% cytotoxic concentration (CC50) at 144 h in data set [1] above 100000 nM.

In the case of `CCCCC(=O)Nc1ccc(-c2nnc(-c3ccccc3)o2)cc1` [Example 3, N-[4-(5-phenyl-1,3,4-oxadiazol-2-yl)phenyl]pentanamide], the half-maximal inhibitory concentration (IC50) with HBeAg is 3010 nM; with HBsAg it was 2390 nM. Further, the CC50 at 144 h in data set [1] was above 100000 nM.

Consider `O=C(Nc1ccc(-c2nnc(-c3ccccc3)o2)cc1)c1ccncc1` [Example 19, N-[4-(5-phenyl-1,3,4-oxadiazol-2-yl)phenyl]pyridine-4-carboxamide], for which the IC50 with HBeAg worked out at 2800 nM; with HBsAg, 4800 nM. The compound also showed a cytotoxic concentration (CC50) at 144 h in data set [1] above 100000 nM.

`Cc1cc(F)cc(C(=O)Nc2ccc(-c3nnc(-c4ccccc4)o3)cc2)c1` [Example 10, 3-fluoro-5-methyl-N-[4-(5-phenyl-1,3,4-oxadiazol-2-yl)phenyl]benzamide]: the IC50 worked out at 2170 nM in the data set with HBeAg and 1610 nM with HBsAg. In data set [1], this compound came in with a CC50 at 144 h above 100000 nM.

`O=C(Nc1ccc(-c2nnc(-c3ccccc3)o2)cc1)c1ncco1` [Example 26, N-[4-(5-phenyl-1,3,4-oxadiazol-2-yl)phenyl]oxazole-2-carboxamide]: the IC50 in the data set on HBeAg was 1420 nM; with HBsAg, 910 nM. Besides, the cytotoxic concentration (CC50) at 144 h in data set [1] is above 100000 nM.

Take `O=C(Nc1ccc(-c2nnc(-c3ccccc3)o2)cc1)c1cccc(Cl)n1` [Example 22, 6-chloro-N-[4-(5-phenyl-1,3,4-oxadiazol-2-yl)phenyl]pyridine-2-carboxamide]: the IC50 with HBeAg is 1590 nM; in the data set on HBsAg, 960 nM. For the same compound, the CC50 at 144 h in data set [1] was above 100000 nM.

With `O=C(Nc1ccc(-c2nnc(-c3ccccc3)o2)cc1)c1ccnc(Cl)c1` [Example 20, 2-chloro-N-[4-(5-phenyl-1,3,4-oxadiazol-2-yl)phenyl]pyridine-4-carboxamide], the IC50 was 2560 nM with HBeAg and 1390 nM in the data set with HBsAg. Besides, the half-maximal cytotoxic concentration (CC50) at 144 h in data set [1] is above 100000 nM.

For the compound `O=C(Nc1ccc(-c2nnc(-c3ccccc3)o2)cc1)c1ccccc1F` [Example 8, 2-fluoro-N-[4-(5-phenyl-1,3,4-oxadiazol-2-yl)phenyl]benzamide], the IC50 in the data set with HBeAg is 5060 nM; with HBsAg, 4170 nM. The compound further showed a CC50 at 144 h in data set [1] above 100000 nM.

As for `O=C(Nc1ccc(-c2nnc(-c3ccccc3)o2)cc1)c1cccc(OC(F)(F)F)c1` [Example 16, N-[4-(5-phenyl-1,3,4-oxadiazol-2-yl)phenyl]-3-(trifluoromethoxy)benzamide], the IC50 came to 2910 nM in the data set on HBeAg and 1350 nM with HBsAg. The CC50 at 144 h in data set [1] is above 100000 nM.

On to `O=C(Nc1ccc(-c2nnc(-c3ccccc3)o2)cc1)c1ccccc1OC(F)(F)F` [Example 14, N-[4-(5-phenyl-1,3,4-oxadiazol-2-yl)phenyl]-2-(trifluoromethoxy)benzamide], for which the results for the half-inhibitory concentration (IC50) with HBeAg and in the data set on HBsAg were 2880 nM and 3590 nM, respectively. The compound also gave a 50% cytotoxic concentration (CC50) at 144 h in data set [1] above 100000 nM.

Take `N#Cc1ccc(C(=O)Nc2ccc(-c3nnc(-c4ccccc4)o3)cc2)cc1` [Example 18, 4-cyano-N-[4-(5-phenyl-1,3,4-oxadiazol-2-yl)phenyl]benzamide]: the 50% inhibitory concentration (IC50) was determined as 2260 nM in the data set on HBeAg and 2540 nM in the data set on HBsAg. The same compound displayed a CC50 at 144 h in data set [1] above 100000 nM.

Regarding `CC(C)(C)C(=O)Nc1ccc(-c2nnc(-c3ccccc3)o2)cc1` [Example 28, 2,2-dimethyl-N-[4-(5-phenyl-1,3,4-oxadiazol-2-yl)phenyl]propanamide], the concentration for half-maximal inhibition (IC50) stood at 4230 nM in the data set on HBeAg and 7650 nM in the data set on HBsAg. Further, the CC50 at 144 h in data set [1] was above 100000 nM.

`CCCC(=O)Nc1ccc(-c2nnc(-c3ccccc3)o2)cc1` [Example 2, N-[4-(5-phenyl-1,3,4-oxadiazol-2-yl)phenyl]butanamide]: the concentration for half-maximal inhibition (IC50) in the data set with HBeAg came to 43100 nM; in the data set on HBsAg, 3000 nM. Also, the half-maximal cytotoxic concentration (CC50) at 144 h in data set [1] was above 100000 nM.

Turning to `CC(C)(C)CC(=O)Nc1ccc(-c2nnc(-c3ccccc3)o2)cc1` [Example 29, 3,3-dimethyl-N-[4-(5-phenyl-1,3,4-oxadiazol-2-yl)phenyl]butanamide], the results for the 50% inhibitory concentration (IC50) with HBeAg and in the data set on HBsAg were 9570 nM and 5100 nM, respectively. The half-maximal cytotoxic concentration (CC50) at 144 h in data set [1] was above 100000 nM.

Consider `O=C(Nc1ccc(-c2nnc(-c3ccccc3)o2)cc1)c1nccs1` [Example 27, N-[4-(5-phenyl-1,3,4-oxadiazol-2-yl)phenyl]thiazole-2-carboxamide], for which the concentration for half-maximal inhibition (IC50) came to 1710 nM in the data set on HBeAg and 1520 nM in the data set with HBsAg. For the same compound, the CC50 at 144 h in data set [1] is above 100000 nM.

Take `O=C(Nc1ccc(-c2nnc(-c3ccccc3)o2)cc1)c1ccnnc1` [Example 24, N-[4-(5-phenyl-1,3,4-oxadiazol-2-yl)phenyl]pyridazine-4-carboxamide]: the figures for the half-maximal inhibitory concentration (IC50) in the data set on HBeAg and in the data set on HBsAg were 1600 nM and 1200 nM, respectively. For the same compound, the half-maximal cytotoxic concentration (CC50) at 144 h in data set [1] is above 100000 nM.

With `Cc1cc(-c2nnc(-c3ccccc3)o2)ccc1N` [Example 30, 2-methyl-4-(5-phenyl-1,3,4-oxadiazol-2-yl)aniline], the half-maximal inhibitory concentration (IC50) in the data set on HBeAg turned out to be 3210 nM; in the data set on HBsAg, 1430 nM. This compound came in with a CC50 at 144 h in data set [1] above 100000 nM.

Consider `O=C(Nc1ccc(-c2nnc(-c3ccccc3)o2)cc1)c1ccccc1OC(F)F` [Example 15, 2-(difluoromethoxy)-N-[4-(5-phenyl-1,3,4-oxadiazol-2-yl)phenyl]benzamide], for which the half-inhibitory concentration (IC50) with HBeAg and in the data set with HBsAg was 1940 nM throughout. Besides, the cytotoxic concentration (CC50) at 144 h in data set [1] was above 100000 nM.

With `O=C(Nc1ccc(-c2nnc(-c3ccccc3)o2)cc1)c1ccc(Cl)cn1` [Example 23, 5-chloro-N-[4-(5-phenyl-1,3,4-oxadiazol-2-yl)phenyl]pyridine-2-carboxamide], the 50% inhibitory concentration (IC50) was 2120 nM in the data set on HBeAg and 1230 nM in the data set with HBsAg. For the same compound, the cytotoxic concentration (CC50) at 144 h in data set [1] is above 100000 nM.

As for `O=C(Nc1ccc(-c2nnc(-c3ccccc3)o2)cc1)c1ccc(Cl)cc1` [Example 13, 4-chloro-N-[4-(5-phenyl-1,3,4-oxadiazol-2-yl)phenyl]benzamide], the 50% inhibitory concentration (IC50) with HBeAg was 4430 nM; in the data set with HBsAg, 5620 nM. The cytotoxic concentration (CC50) at 144 h in data set [1] is above 100000 nM.

Turning to `O=C(Nc1ccc(-c2nnc(-c3ccccc3)o2)cc1)c1cccnn1` [Example 25, N-[4-(5-phenyl-1,3,4-oxadiazol-2-yl)phenyl]pyridazine-3-carboxamide], the results for the IC50 in the data set with HBeAg and in the data set with HBsAg were 1270 nM and 1090 nM, respectively. Moreover, the CC50 at 144 h in data set [1] was above 100000 nM.

As for `O=C(Nc1ccc(-c2nnc(-c3ccccc3)o2)cc1)c1ccccc1Cl` [Example 9, 2-chloro-N-[4-(5-phenyl-1,3,4-oxadiazol-2-yl)phenyl]benzamide], the half-maximal inhibitory concentration (IC50) is 1690 nM with HBeAg and 8230 nM in the data set on HBsAg. Also, the CC50 at 144 h in data set [1] was above 100000 nM.

Regarding `O=C(Nc1ccc(-c2nnc(-c3ccccc3)o2)cc1)C1CCCC1` [Example 7, N-[4-(5-phenyl-1,3,4-oxadiazol-2-yl)phenyl]cyclopentanecarboxamide], the IC50 with HBeAg is 770 nM; in the data set on HBsAg, 510 nM. The compound also came in with a CC50 at 144 h in data set [1] above 100000 nM.

Regarding `Cc1cc(Cl)cc(C(=O)Nc2ccc(-c3nnc(-c4ccccc4)o3)cc2)c1` [Example 11, 3-chloro-5-methyl-N-[4-(5-phenyl-1,3,4-oxadiazol-2-yl)phenyl]benzamide], the half-inhibitory concentration (IC50) in the data set on HBeAg is 12600 nM; in the data set with HBsAg, 6400 nM. The compound further showed a CC50 at 144 h in data set [1] above 100000 nM.
